Columns and labels:
horse serum BChE = horse serum BChE (Equus caballus, UniProt P81908); assay: biochemical; format: biochemical; conditions: n = 3; for Enzyme inhibition (% ± SD) at 10 mM, BChE / inhibition at 10000 µM: at 10 mM; for inhibition at 10000 µM: read-out: Enzyme inhibition (% ± SD) at 10 mM, BChE
[1] = test system: scopolamine-induced amnesic mice; assay: Passive avoidance test in scopolamine-induced amnesic mice; format: in vivo

Sequence of horse serum BChE (P81908 whole entry): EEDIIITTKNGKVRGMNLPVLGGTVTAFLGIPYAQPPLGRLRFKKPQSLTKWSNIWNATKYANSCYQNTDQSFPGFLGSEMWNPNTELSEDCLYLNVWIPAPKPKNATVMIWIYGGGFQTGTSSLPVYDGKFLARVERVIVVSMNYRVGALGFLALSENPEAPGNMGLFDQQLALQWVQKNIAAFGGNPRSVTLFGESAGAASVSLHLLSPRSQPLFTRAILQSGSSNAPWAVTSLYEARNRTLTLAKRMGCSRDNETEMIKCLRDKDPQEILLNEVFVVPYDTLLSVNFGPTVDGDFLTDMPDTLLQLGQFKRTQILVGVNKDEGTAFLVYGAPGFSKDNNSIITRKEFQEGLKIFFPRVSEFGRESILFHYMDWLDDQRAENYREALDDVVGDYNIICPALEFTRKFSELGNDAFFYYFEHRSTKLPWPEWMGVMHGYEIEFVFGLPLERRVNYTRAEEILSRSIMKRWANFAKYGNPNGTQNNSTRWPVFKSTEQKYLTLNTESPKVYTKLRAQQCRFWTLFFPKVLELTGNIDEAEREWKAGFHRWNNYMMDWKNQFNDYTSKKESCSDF

Structure (SMILES)	inhibition at 10000 µM (horse serum BChE; ± SD) [%]	also measured
O=c1cc(-c2ccc(O)c(-c3c(O)cc(O)c4c(=O)cc(-c5ccc(O)cc5)oc34)c2)oc2cc(O)cc(O)c12 [Amentoflavone]	< 0	Enzyme inhibition (% ± SD) at 10 mM, BChE (horse serum BChE): no inhibition
O=c1cc(-c2ccc(O)cc2)oc2cc(O)cc(O)c12 [Apigenin]	< 0	
O=C(/C=C/c1ccc(O)c(O)c1)O[C@@H]1C[C@](O)(C(=O)O)C[C@@H](O)[C@H]1O [Chlorogenic acid]	25.4 ± 1.72	
O=c1oc2c(O)c(O)cc3c(=O)oc4c(O)c(O)cc1c4c23 [Ellagic acid]	< 0	Enzyme inhibition (% ± SD) at 10 mM, BChE (horse serum BChE): no inhibition
O=c1c(O)c(-c2ccc(O)c(O)c2)oc2cc(O)ccc12 [Fisetin]	76.2 ± 2.48	IC50 (horse serum BChE; ± SD): 9.62 mM
O=C(O)c1cc(O)c(O)c(O)c1 [Gallic acid]	84.4 ± 2.25	Mean latency time (min) ± SEM (2nd day) ([1]; 20 mg/kg i.p., scopolamine 1 mg/kg i.p. 30 min later, 24 h after scopolamine, cutoff 9 min): 6.76 ± 1.11 min; Mean latency time (min) ± SEM (1st day) ([1]; acquisition day, before treatment, group given 20 mg/kg i.p., n = 8): 0.29 ± 0.03 min
O=c1c(-c2ccc(O)cc2)coc2cc(O)cc(O)c12 [Genistein]	< 0	
O=c1c(O)c(-c2ccc(O)cc2)oc2cc(O)cc(O)c12 [Kaempferol]	< 0	
O=c1cc(-c2ccc(O)c(O)c2)oc2cc(O)cc(O)c12 [Luteolin]	< 0	Enzyme inhibition (% ± SD) at 10 mM, BChE (horse serum BChE): no inhibition
Oc1ccc(-c2[o+]c3cc(O)cc(O)c3cc2O)cc1 [Pelargonidin]	25.3 ± 4.13	
O=c1c(O)c(-c2ccc(O)c(O)c2)oc2cc(O)cc(O)c12 [Quercetin]	99.4 ± 0.76	
COc1cc(C(=O)O)ccc1O [Vanillic acid]	35.1 ± 3.21	

Source: publication PMC12537693, “3-Hydroxytyrosol as a phenolic cholinesterase inhibitor with antiamnesic activity: a multimethodological study of selected plant phenolics” (Frontiers in Pharmacology, 2025)
